Reference: patent publication US6048852A, “β-thiopropionyl-aminoacid derivatives and their use as β-lactamase inhibitors” (SmithKline Beecham p.l.c., priority 1996, dated 2000)
Where two headings read alike, the source gives them in different places.

How the values were obtained:
[1] = molecular target: B. fragilis CfiA metallo-β-lactamase (Bacteroides fragilis, UniProt P25910); test: I50 screen, nitrocefin reporter substrate, CfiA metallo-β-lactamase; type: biochemical; settings: 25 mM PIPES pH 7, 37° C., nitrocefin 91 μM, 5 minute preincubation, Zn2+ 100 μM; enumerated Examples; read-out: I50 values against B. fragilis CfiA metallo-β-lactamase
B. fragilis CfiA metallo-β-lactamase, sequence (P25910 19-249): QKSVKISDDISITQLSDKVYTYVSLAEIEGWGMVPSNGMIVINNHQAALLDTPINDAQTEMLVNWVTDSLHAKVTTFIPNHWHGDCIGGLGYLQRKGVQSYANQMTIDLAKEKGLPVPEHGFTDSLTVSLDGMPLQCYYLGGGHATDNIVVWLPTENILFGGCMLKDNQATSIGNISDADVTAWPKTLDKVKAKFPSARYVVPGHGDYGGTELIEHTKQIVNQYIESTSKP
Method: The inhibitory activity of the compounds of the invention was measured in 25 mM PIPES pH 7 buffer at 10 concentrations (1000, 333, 111, 37, 12.3, 4.1, 1.4, 0.46, 0.15 and 0.05 μM) at 37° C. using nitrocefin (91 μM final concentration) as the reporter substrate. The assays were performed with a 5 minute preincubation of enzyme and inhibitor and were conducted in the presence of added zinc sulphate (Zn^2+ 100 μM, final concentration). the methodology is described in detail in the following references: Payne et al (1991), J. Antimicrob. Chemother., 28:255; Payne et al (1994), Antimicrob. Agents and Chemother., 38:767.

[2] = tested on: Bacteroides fragis 262 strain, which produces CfiA metallo-β-lactamase; test: Antibacterial activity (MIC) in combination with meropenem; type: cell-based, Bacteroides fragilis
Description: Antibacterial activity of compounds of the invention in combination with the carbapenem antibiotic, meropenem, against the Bacteroides fragis 262 strain, which produces CfiA metallo-β-lactamase:
[MIC=minimum inhibitory concentration (μg/ml)]

[3] = read-out: MIC (μg/ml) of compound alone

| IC50 [1] | SMILES | MIC [2, 3] | MIC ([2]; read-out: MIC (μg/ml) of meropenem alone) |
| --- | --- | --- | --- |
| < 1000 nM | O=C(O)c1ccc(CCC(CS)C(=O)N[C@@H](C(=O)O)c2ccccc2)cc1 (single isomer, unassigned) [46 (Isomer A), N-[2'-(Mercaptomethyl)-4'-(4"-hydroxycarbonyl)phenylbutanoyl]-D-phenylglycine] |  |  |
| < 1000 nM | O=C(N[C@@H](C(=O)O)c1ccccc1)C(CS)CCc1ccc2nc(C(F)(F)F)ccc2c1 (single isomer, unassigned) [47 (Isomer B), N-[2'-(Mercaptomethyl)-4'-(2"-trifluoromethylquinolin-6"-yl)butanoyl]-D-phenylglycine] |  |  |
|  | CC(S)C(Cc1ccccc1)C(=O)N[C@@H](C(=O)O)c1ccccc1 (single isomer, unassigned) [Example 50 (all isomers), N-[2'-Benzyl-3'-mercaptobutanoyl]-D-phenylglycine] | > 128 µg/mL |  |
| < 1000 nM | O=C(N[C@@H](Cc1c[nH]c2ccccc12)C(=O)O)C(CS)Cc1ccccc1 (stereo partly drawn) [5d), N-[2'-Benzyl-3'-mercaptopropionyl]tryptophan] |  |  |
| < 1000 nM | O=C(N[C@H](Cc1c[nH]c2ccccc12)C(=O)O)C(CS)Cc1ccccc1 (stereo partly drawn) [5e), N-[2'-Benzyl-3'-mercaptopropionyl]-D-tryptophan] |  |  |
| < 1000 nM | O=C(N[C@@H](C(=O)O)c1ccccc1)[C@@H](CS)Cc1ccccc1 [9i), [2'S]-N-[2'-Benzyl-3'-mercaptopropionyl]-D-phenylglycine] |  |  |
| < 1000 nM | O=C(N[C@@H](C(=O)O)c1ccccc1)[C@@H](CS)CCCCCc1ccccc1 [40f), N-[(S)-2'-Mercaptomethyl-7'-phenylheptanoyl]-D-phenylglycine] |  |  |
| < 1000 nM | O=C(NC(C(=O)O)c1ccccc1)C(CS)Cc1ccccc1 (stereo not drawn) [Example 9e), N-[2'-Benzyl-3'-mercaptopropionyl]phenylglycine] |  |  |
| < 1000 nM | O=C(N[C@@H](C(=O)O)c1ccc(O)c(O)c1)C(CS)Cc1ccccc1 (stereo partly drawn) [Example 15, N-[2'-Benzyl-3'-mercaptopropionyl]-3,4-dihydroxy-D-phenylglycine] |  |  |
| < 1000 nM | O=C(N[C@@H](C(=O)O)c1ccc(F)cc1)C(CS)Cc1ccccc1 (stereo partly drawn) [Example 16, N-[2'-Benzyl-3'-mercaptopropionyl]-4-fluoro-D-phenylglycine] |  |  |
| < 1000 nM | O=C(NC(C(=O)O)c1cccc(F)c1)C(CS)Cc1ccccc1 (stereo not drawn) [Example 17, N-[2'-Benzyl-3'-mercaptopropionyl]-3-fluorophenylglycine] |  |  |
| < 1000 nM | O=C(N[C@@H](C(=O)O)c1cccc([N+](=O)[O-])c1)C(CS)Cc1ccccc1 (stereo partly drawn) [Example 18, N-[2'-Benzyl-3'-mercaptopropionyl]-3-nitro-D-phenylglycine] |  |  |
| < 1000 nM | O=C(NC(C(=O)O)c1cccs1)C(CS)Cc1ccccc1 (stereo not drawn) [Example 20, N-[2'-Benzyl-3'-mercaptopropionyl]-2-thienylglycine] |  |  |
| < 1000 nM | Cn1cc(C(NC(=O)C(CS)Cc2ccccc2)C(=O)O)cn1 (stereo not drawn) [Example 25, N-[2'-Benzyl-3'-mercaptopropionyl]4-[1-methylisoiinidazolyl]glycine] |  |  |
| < 1000 nM | O=C(NC(C(=O)O)c1ccco1)C(CS)Cc1ccccc1 (stereo not drawn) [Example 30, N-[2'-Benzyl-3'-mercaptopropionyl]-2-(2"-furanyl)glycine] |  |  |
| < 1000 nM | O=C(N[C@@H](C(=O)O)c1ccccc1)C(CS)CCCCc1ccccc1 (stereo partly drawn) [Example 39, N-[2'-Mercaptomethyl-6'-phenylhexanoyl]-D-phenylglycine] |  |  |
| < 1000 nM | O=C(N[C@@H](C(=O)O)c1ccccc1)C(CS)C1CCc2ccccc21 (stereo partly drawn) [Example 41, N-[2'-(Indan-1-yl)-3'-mercaptopropanoyl]-D-phenylglycine] |  |  |
| < 1000 nM | O=C(N[C@@H](C(=O)O)c1ccccc1)C(CS)CCOc1ccccc1 (stereo partly drawn) [Example 42, N-[2'-Mercaptomethyl-4'-phenoxybutanoyl]-D-phenylglycine] |  |  |
| < 1000 nM | CC(S)C(CCc1ccccc1)C(=O)N[C@@H](C(=O)O)c1ccccc1 (stereo partly drawn) [Example 44, N-[2'-(1"-Mercaptoethyl)-4'-phenylbutanoyl]-D-phenylglycine] |  |  |
|  | CCC(S)C(Cc1ccccc1)C(=O)N[C@@H](C(=O)O)c1ccccc1 (stereo partly drawn) [Example 49, N-[2-Benzyl-3-mercaptopentanoyl]-D-phenylglycine] | > 128 µg/mL |  |
|  | O=C(N[C@@H](C(=O)O)c1ccccc1)C(Cc1ccccc1)C1(S)CC1 (stereo partly drawn) [Example 52, N-[2'-Benzyl-2'-(1"-mercaptocyclopropyl)acetyl]-D-phenylglycine] | > 128 µg/mL |  |
|  | C[C@@H](O)[C@H]1C(=O)N2C(C(=O)O)=C(S[C@@H]3CN[C@H](C(=O)N(C)C)C3)[C@H](C)[C@H]12 [meropenem, reference compound] |  | > 128 µg/mL |

| SMILES | IC50 [1] | MIC [2, 3] | MIC ([2]; read-out: MIC (μg/ml) of meropenem alone) |
| --- | --- | --- | --- |
| CC(S)C(Cc1ccccc1)C(=O)N[C@@H](C(=O)O)c1ccccc1 (single isomer, unassigned) [Example 50 (Isomer B), N-[2'-Benzyl-3'-mercaptobutanoyl]-D-phenylglycine] | < 1000 nM |  |  |
| CC(S)C(Cc1ccccc1)C(=O)N[C@@H](C(=O)O)c1ccccc1 (single isomer, unassigned) [Example 50 (Isomer C), N-[2'-Benzyl-3'-mercaptobutanoyl]-D-phenylglycine] | < 1000 nM |  |  |
| O=C(N[C@@H](C(=O)O)c1ccccc1)[C@@H](CS)CCc1ccccc1 [37f), N-[(S)-2'-Mercaptomethyl-4'-phenylbutanoyl]-D-phenylglycine] | < 1000 nM | > 128 µg/mL |  |
| O=C(N[C@@H](C(=O)O)c1ccccc1)[C@@H](CS)CCCc1ccccc1 [38f), N-[(S)-2'-Mercaptomethyl-5'-phenylpentanoyl]-D-phenylglycine] | < 1000 nM | > 128 µg/mL |  |
| O=C(N[C@@H](C(=O)O)c1ccccc1)C(CS)Cc1ccccc1 (stereo partly drawn) [Example 9k), N-[2'-Benzyl-3'-mercaptopropionyl]-D-phenylglycine] | < 1000 nM | > 128 µg/mL |  |
| O=C(N[C@@H](C(=O)O)c1ccc(O)cc1)C(CS)Cc1ccccc1 (stereo partly drawn) [Example 12, N-[2'-Benzyl-3'-mercaptopropionyl]-4-hydroxy-D-phenylglycine] | < 1000 nM | > 128 µg/mL |  |
| COc1ccc(C(NC(=O)C(CS)Cc2ccccc2)C(=O)O)cc1 (stereo not drawn) [Example 13, N-[2'-Benzyl-3'-mercaptopropionyl]4-methoxyphenylglycine] | < 1000 nM | > 128 µg/mL |  |
| O=C(NC(C(=O)O)c1ccc(O)c([N+](=O)[O-])c1)C(CS)Cc1ccccc1 (stereo not drawn) [Example 14, N-[2'-Benzyl-3'-mercaptopropionyl]-4-hydroxy-3-nitrophenylglycine] | < 1000 nM | > 128 µg/mL |  |
| O=C(NC(C(=O)O)c1ccccc1F)C(CS)Cc1ccccc1 (stereo not drawn) [Example 19, N-[2'-Benzyl-3'-mercaptopropionyl]-2-fluorophenylglycine] | < 1000 nM | > 128 µg/mL |  |
| CC(CS)C(=O)N[C@@H](C(=O)O)c1ccccc1 (stereo partly drawn) [Example 22, N-[2'-Methyl-3'-mercaptopropionyl]-D-phenylglycine] | < 1000 nM | > 128 µg/mL |  |
| CC(C)CC(CS)C(=O)N[C@@H](C(=O)O)c1ccccc1 (stereo partly drawn) [Example 23, N-(4-Methyl-2-mercaptomethylpentanoyl]-D-phenylglycine] | < 1000 nM | > 128 µg/mL |  |
| Cc1ccc(C(NC(=O)C(CS)Cc2ccccc2)C(=O)O)cc1 (stereo not drawn) [Example 24, N-[2'-Benzyl-3'-mercaptopropionyl]-4-methylphenylglycine] | < 1000 nM | > 128 µg/mL |  |
| CC(C)CC(C(=O)N[C@@H](C(=O)O)c1ccccc1)C(C)S (stereo partly drawn) [Example 27, N-[2'-Isobutyl-3'-mercaptobutanoyl]-D phenylglycine] | < 1000 nM | > 128 µg/mL |  |
| O=C(NC(C(=O)O)c1cc2ccccc2s1)C(CS)Cc1ccccc1 (stereo not drawn) [Example 31, N-[2'-Benzyl-3'-mercaptopropionyl]-2-(2"-benzothienyl)glycine] | < 1000 nM | > 128 µg/mL |  |
| O=C(NC(C(=O)O)c1ccoc1)C(CS)Cc1ccccc1 (stereo not drawn) [Example 32, N-[2'-Benzyl-3'-mercaptopropionyl]-2-(3"-furanyl)glycine] | < 1000 nM | > 128 µg/mL |  |
| O=C(NC(C(=O)O)c1ccsc1)C(CS)Cc1ccccc1 (stereo not drawn) [Example 43, N-[2'-Benzyl-3'-mercaptopropionyl]-2-(3"-thienyl)glycine] | < 1000 nM | > 128 µg/mL |  |
| O=C(N[C@@H](C(=O)O)c1ccccc1)C(CS)CCc1ccc(OC(F)F)cc1 (stereo partly drawn) [Example 55, N-[2'-Mercaptomethyl-4'-(4"-difluoromethoxphenyl)butanoyl)-D-phenylglycine] | < 1000 nM | > 128 µg/mL |  |
